The values that follow come from publication PMC9197942 (Clinical cancer research : an official journal of the …, 2022).

Data set [1] in a line: Reproductive toxicity studies. To be noted: in vivo.
Data set [2] in a line: Photoabsorbance in vitro. It is filed as physicochemical.
For data set [3], the system named is ROCK1 isoform. To be noted: in vitro, compared with ROCK2; cited from earlier work.
The test system of data set [4] is cGVHD mouse models. To be noted: cited from earlier work.
Data set [5] has as its target CYP2C8 (Homo sapiens, UniProt P10632). The data set can be described thus: In vitro metabolism. It is filed as in vitro ADME.
Data set [6] has as its system dogs. The experiment in a line: Safety pharmacology studies in dogs. It counts as in vivo, dog.
The subject of data set [7] is adult patients with cGVHD. The data set can be described thus: Clinical safety, Studies KD025-208 and KD025-213, belumosudil 200 mg daily. It counts as in vivo, human.
For data set [8], the system named is MRTF. To be noted: ex-vivo or in vitro; cited from earlier work.
For data set [9], the system named is CYP1A2. To be noted: cited from earlier work.
Data set [10] is described as follows: Tissue distribution. To be noted: in vivo.
Data set [11] has as its system STAT3. To be noted: ex-vivo or in vitro; cited from earlier work.
Data set [12] addresses T1, UGT1A1 (Homo sapiens, UniProt P22309). The experiment in a line: UGT1A1 inhibition. To be noted: at concentrations that could be achieved clinically. It counts as in vitro ADME.
Data set [13] has as its system p-glycoprotein. To be noted: cited from earlier work.
Data set [14] is described as follows: Clinical pharmacokinetics of belumosudil. It counts as in vivo, human.
The subject of data set [15] is OATP1B1. To be noted: cited from earlier work.
Data set [16] relates to CYP3A. To be noted: cited from earlier work.
Data set [17] has as its system patients with chronic GVHD. The data set can be described thus: Study KD025-213 efficacy, belumosudil 200 mg daily cohort. It is filed as in vivo, human. To be noted: for Median time from first response to death or new systemic therapy: 49 responders; for Overall response rate (ORR) through Cycle 7 Day 1 (CR or PR): N=65, 2014 NIH consensus criteria, FDA adjudicated; for Patients with 7-point or greater decrease in Lee Symptom Scale summary score through Cycle 7 Day 1: N=65, exploratory; for Median duration of response: responders.

The test system of data set [18] is animals. The data set can be described thus: Animal toxicology studies. It counts as in vivo.
For data set [19], the target named is CYP3A4 (Homo sapiens, UniProt P08684). The experiment in a line: In vitro metabolism. It is filed as in vitro ADME.
CYP3A4, sequence (P08684 whole entry): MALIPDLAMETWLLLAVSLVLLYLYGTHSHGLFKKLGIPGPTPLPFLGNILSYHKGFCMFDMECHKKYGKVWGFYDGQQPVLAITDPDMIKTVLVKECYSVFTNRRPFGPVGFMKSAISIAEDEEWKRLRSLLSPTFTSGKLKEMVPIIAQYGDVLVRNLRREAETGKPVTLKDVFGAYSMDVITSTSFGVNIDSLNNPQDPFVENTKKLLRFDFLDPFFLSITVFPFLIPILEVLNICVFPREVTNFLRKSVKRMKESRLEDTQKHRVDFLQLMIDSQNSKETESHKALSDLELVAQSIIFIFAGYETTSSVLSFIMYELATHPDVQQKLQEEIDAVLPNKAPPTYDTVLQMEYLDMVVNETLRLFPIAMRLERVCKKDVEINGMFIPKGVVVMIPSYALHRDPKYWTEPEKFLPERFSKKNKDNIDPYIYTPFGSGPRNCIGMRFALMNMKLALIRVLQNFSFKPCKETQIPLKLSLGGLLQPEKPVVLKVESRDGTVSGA
Data set [20] concerns mTOR pathway. To be noted: in vitro; cited from earlier work.
Data set [21] concerns human peripheral blood mononuclear cells. To be noted: CD3-CD28 stimulation of human PBMC, ex-vivo or in vitro; cited from earlier work.
For data set [22], the system named is patients with cGVHD. The data set can be described thus: Study KD025-208 dose-escalation trial. It is filed as in vivo, human. To be noted: 200 mg daily, 200 mg twice daily and 400 mg daily; 54 patients failing 1-3 prior lines.
Data set [23] concerns the target T1, UGT1A1. To be noted: cited from earlier work.
The target in data set [24] is CYP2D6 (Homo sapiens, UniProt P10635). To be noted: cited from earlier work.
CYP2D6, sequence (P10635 whole entry): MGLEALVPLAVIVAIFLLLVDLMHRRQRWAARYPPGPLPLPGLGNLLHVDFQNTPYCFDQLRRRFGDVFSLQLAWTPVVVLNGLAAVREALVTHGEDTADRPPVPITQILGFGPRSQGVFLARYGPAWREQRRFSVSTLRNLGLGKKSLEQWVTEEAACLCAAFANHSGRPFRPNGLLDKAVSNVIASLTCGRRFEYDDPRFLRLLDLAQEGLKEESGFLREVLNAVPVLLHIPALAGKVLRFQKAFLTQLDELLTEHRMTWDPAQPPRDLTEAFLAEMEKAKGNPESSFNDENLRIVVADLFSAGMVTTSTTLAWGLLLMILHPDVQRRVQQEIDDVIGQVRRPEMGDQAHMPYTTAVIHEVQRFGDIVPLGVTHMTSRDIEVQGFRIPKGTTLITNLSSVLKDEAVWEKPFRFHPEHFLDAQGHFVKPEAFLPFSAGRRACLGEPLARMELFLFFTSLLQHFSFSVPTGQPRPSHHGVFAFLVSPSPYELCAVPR
Data set [25] addresses ROCK2 (Homo sapiens, UniProt O75116). The experiment in a line: ROCK2 inhibition. It counts as biochemical.
A short description of data set [26]: Population pharmacokinetics. Also on record: species or system human. To be noted: in comparison to healthy volunteers.
In data set [27] the test system is CYP2C19. To be noted: cited from earlier work.
For data set [28], the system named is patients with cGVHD. The experiment in a line: Pooled exposure-response analyses. On the set-up: species or system human. To be noted: 186 patients.
Data set [29] has as its target human ether-à-go-go-related gene (hERG) current (Homo sapiens, UniProt Q12809). The experiment in a line: hERG current in vitro. It is filed as biochemical. Background: hERG is a cardiac potassium channel; its block is linked to QT prolongation.
The subject of data set [30] is BCRP. To be noted: cited from earlier work.
For data set [31] the following is noted: cited from earlier work.
Where [32] appears, read: N=65, through Cycle 7 Day 1, listed as belumosudil.
The mark [33] stands for this setting: with proton pump inhibitor rabeprazole.
Setting [34] is: with strong CYP3A inducer rifampicin.

Where two headings read alike, the source gives them in different places.

ROCK2, sequence (O75116 whole entry): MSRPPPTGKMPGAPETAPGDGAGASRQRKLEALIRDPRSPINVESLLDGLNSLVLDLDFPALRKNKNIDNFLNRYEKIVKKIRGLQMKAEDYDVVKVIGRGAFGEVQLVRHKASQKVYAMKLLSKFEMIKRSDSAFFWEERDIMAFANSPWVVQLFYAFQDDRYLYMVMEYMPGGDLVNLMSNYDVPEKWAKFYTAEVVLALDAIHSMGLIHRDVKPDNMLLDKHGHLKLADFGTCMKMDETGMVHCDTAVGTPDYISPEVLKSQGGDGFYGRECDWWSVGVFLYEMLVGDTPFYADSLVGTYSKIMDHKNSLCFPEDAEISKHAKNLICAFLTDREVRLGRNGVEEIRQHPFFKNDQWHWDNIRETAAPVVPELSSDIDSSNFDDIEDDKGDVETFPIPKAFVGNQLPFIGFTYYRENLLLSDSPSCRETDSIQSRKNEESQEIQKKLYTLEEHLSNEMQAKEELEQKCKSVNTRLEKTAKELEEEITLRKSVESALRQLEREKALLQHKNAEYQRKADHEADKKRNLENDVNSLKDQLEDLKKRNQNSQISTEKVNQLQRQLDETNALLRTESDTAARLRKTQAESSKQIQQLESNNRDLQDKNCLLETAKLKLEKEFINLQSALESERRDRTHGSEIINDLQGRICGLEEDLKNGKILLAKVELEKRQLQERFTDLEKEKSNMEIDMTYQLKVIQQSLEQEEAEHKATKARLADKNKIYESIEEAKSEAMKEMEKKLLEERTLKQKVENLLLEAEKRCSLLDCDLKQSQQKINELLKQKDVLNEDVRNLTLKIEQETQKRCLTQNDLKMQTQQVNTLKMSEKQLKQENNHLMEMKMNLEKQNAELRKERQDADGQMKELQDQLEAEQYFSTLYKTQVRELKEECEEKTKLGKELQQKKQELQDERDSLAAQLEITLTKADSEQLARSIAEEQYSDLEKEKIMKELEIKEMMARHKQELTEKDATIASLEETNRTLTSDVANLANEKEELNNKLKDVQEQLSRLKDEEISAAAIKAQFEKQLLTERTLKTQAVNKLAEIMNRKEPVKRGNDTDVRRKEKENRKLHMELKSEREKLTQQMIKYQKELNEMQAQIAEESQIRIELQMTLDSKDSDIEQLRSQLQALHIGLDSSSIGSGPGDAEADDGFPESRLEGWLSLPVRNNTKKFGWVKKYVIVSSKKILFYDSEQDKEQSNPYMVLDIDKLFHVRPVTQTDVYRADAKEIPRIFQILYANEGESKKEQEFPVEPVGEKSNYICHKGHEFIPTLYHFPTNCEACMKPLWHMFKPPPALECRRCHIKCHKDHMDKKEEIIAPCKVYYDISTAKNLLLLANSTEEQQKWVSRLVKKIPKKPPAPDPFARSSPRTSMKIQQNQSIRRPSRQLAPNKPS
T1 sequence (P22309 26-533): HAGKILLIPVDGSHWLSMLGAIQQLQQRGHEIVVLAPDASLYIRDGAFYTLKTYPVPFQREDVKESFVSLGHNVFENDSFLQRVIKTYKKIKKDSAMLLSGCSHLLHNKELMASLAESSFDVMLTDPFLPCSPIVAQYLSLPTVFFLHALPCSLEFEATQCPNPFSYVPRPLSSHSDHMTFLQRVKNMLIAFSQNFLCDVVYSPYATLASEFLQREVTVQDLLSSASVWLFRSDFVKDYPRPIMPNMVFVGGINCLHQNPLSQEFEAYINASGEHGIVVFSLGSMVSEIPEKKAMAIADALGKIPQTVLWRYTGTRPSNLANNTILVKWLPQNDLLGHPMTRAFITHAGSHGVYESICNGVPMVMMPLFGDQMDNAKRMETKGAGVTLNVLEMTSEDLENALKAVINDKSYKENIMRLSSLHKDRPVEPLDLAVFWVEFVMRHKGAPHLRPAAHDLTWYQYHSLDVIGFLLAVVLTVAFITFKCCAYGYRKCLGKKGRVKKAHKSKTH
human ether-à-go-go-related gene (hERG) current, sequence (Q12809 whole entry): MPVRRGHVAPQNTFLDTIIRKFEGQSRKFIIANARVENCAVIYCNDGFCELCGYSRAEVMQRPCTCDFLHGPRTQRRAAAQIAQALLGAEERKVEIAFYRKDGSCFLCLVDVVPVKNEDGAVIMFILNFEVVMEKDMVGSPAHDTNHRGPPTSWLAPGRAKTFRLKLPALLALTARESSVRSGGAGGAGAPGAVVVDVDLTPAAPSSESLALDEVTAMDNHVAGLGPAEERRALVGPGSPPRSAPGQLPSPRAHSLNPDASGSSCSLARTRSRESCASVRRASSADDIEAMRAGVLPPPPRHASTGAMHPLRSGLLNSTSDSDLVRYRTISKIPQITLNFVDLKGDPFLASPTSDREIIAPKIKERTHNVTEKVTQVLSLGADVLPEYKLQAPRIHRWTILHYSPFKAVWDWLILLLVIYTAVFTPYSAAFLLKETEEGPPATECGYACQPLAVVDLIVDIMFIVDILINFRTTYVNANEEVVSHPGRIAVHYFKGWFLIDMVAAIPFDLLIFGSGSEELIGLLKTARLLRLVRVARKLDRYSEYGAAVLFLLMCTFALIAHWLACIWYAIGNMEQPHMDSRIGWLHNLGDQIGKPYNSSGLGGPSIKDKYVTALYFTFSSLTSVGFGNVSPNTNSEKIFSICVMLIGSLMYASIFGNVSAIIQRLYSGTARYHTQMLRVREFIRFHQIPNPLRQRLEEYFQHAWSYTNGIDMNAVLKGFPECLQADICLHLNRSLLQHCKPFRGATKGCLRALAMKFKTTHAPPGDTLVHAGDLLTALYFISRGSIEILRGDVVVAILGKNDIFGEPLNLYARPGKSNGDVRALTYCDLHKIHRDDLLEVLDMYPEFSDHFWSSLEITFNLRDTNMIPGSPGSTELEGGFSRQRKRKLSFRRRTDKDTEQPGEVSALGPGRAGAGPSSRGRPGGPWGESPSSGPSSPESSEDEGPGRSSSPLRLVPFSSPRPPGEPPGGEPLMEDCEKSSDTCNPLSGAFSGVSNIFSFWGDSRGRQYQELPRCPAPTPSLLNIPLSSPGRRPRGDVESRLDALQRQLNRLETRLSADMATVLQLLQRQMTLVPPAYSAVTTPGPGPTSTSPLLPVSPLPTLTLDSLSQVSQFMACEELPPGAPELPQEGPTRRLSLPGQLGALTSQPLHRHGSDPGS
CYP2C8, sequence (P10632 whole entry): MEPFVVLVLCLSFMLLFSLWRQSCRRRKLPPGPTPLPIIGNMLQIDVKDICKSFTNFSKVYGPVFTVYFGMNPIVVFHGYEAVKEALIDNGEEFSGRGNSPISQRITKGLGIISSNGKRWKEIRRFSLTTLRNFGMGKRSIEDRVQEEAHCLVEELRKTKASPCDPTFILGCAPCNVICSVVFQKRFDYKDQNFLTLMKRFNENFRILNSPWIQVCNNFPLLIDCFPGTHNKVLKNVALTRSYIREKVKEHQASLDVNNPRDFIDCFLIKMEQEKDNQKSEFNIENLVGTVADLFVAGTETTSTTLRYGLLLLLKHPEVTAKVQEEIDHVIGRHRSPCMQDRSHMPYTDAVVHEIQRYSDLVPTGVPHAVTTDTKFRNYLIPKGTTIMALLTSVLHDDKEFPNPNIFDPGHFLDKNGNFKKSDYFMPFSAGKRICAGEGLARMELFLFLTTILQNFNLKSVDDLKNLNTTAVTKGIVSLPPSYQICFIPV

A word on the Tmax: it is the time at which the peak concentration occurs. For the molecule `CC(C)NC(=O)COc1cccc(-c2nc(Nc3ccc4[nH]ncc4c3)c3ccccc3n2)c1` [Belumosudil], in data set [1], the Embryo-fetal toxicity entry is on record as “embryo-fetal toxicity” and the Male fertility result is “impaired male fertility”. Besides, in data set [2], the Photoabsorbance entry is listed as “observed”. The ROCK1 isoform inhibition entry in data set [3] is given as “with less potency”. In addition, the “cGVHD-related clinical and histological abnormality scores in the lung and skin” value in data set [4] was “improvement”. Further, the “Metabolism by CYP2C8” value in [5] is reported as “to a lesser extent”. For the same molecule, the “Effect on blood pressure” value in data set [6] is recorded as “lowering of the blood pressure”. Besides, the “Incidence of Viral infection” value in [7] (Grades ≥ 3, 200 mg daily, n=83) was found to be 4%. For the same molecule, in data set [7] (human, in vivo), the “Adverse reactions leading to dose interruption” value worked out at 29%, the “Dose interruption due to diarrhea” value was 4% and the “Dose interruption due to infections” value turned out to be 11%. In [8], the MRTF-mediated gene expression result is on record as “inhibited”. The CYP1A2 inhibition result in data set [9] is “inhibit”. In data set [10], the Tissue distribution result was “distributed to photosensitive areas such as skin and uveal tract”. The “STAT3 phosphorylation and transcriptional activity” value in data set [11] was “inhibited”. Also, in data set [12], the UGT1A1 inhibition result is “inhibited”. Besides, the p-glycoprotein inhibition result in [13] was “inhibit”. Moreover, in data set [14] (administration with food), the “Delay of Tmax with food” value was 0.5 h, the “Increase of AUC with food” value was 2 times and the “Increase of Cmax with food” value is given as 2.2 times. For the same molecule, the “Excretion in feces unchanged” value in data set [14] (human, in vivo) is 30%. Further, in [14] (human, in vivo, oral), the time of peak concentration (Tmax) came out at 1.26 h. Also, the OATP1B1 inhibition entry in [15] is “inhibit”. Moreover, the “Effect on CYP3A” value in [16] is “little effect”. In data set [17], the “Median time from first response to death or new systemic therapy” value is “Not estimable”, the “Overall response rate (ORR) through Cycle 7 Day 1 (CR or PR)” value was 49 (75%) (63% - 85%), the “Patients with 7-point or greater decrease in Lee Symptom Scale summary score through Cycle 7 Day 1” value is reported as “(52%) (40% - 65%)” and the “Median duration of response” value is recorded as 1.9 months (1.2-2.9 months). Moreover, in data set [17] (listed as belumosudil), the “Median time from first response to death or new systemic therapy” value is on record as “not reached”, the “Overall response rate (ORR) through Cycle 7 Day 1 (CR or PR)” value was determined as 75%, the “Patients with 7-point or greater decrease in Lee Symptom Scale summary score through Cycle 7 Day 1” value is listed as 52% and the “Median duration of response” value is recorded as 1.9 months. Besides, in [17] (N=65, through Cycle 7 Day 1), the “Complete Response (CR)” value is 4 (6%) and the “Partial Response (PR)” value is 45 (69%). For the same molecule, in [17] (setting [32]), the “Complete Response (CR)” value was 6% and the “Partial Response (PR)” value came out at 69%. The “Target organs of toxicity” value in [18] is “toxicities were observed in the gastrointestinal tract, liver, kidney, hemolymphoid system, and reproductive system”. The “Metabolism by CYP3A4” value in data set [19] was “metabolized primarily”. In addition, the mTOR pathway inhibition entry in data set [20] is “inhibited”. Besides, the “Secretion of IL-21 and IL-17” value in data set [21] is on record as “inhibited”. The “Activity in cGVHD” value in data set [22] was “appeared to be active”. In data set [23], the UGT1A1 inhibition entry was “inhibit”. For the same molecule, the CYP2D6 inhibition entry in data set [24] is given as “inhibit”. Besides, the ROCK2 inhibition result in [25] is given as “inhibitor”. Besides, the “Effect of a diagnosis of GVHD on clearance” value in data set [26] was “decreased clearance”. The CYP2C19 inhibition entry in data set [27] is “inhibit”. In data set [28], the “Relationship of response with exposure” value was “no relationship”. For the same molecule, the hERG current result in data set [29] was “blocked”. Besides, the BCRP inhibition entry in [30] is on record as “inhibit”. Further, in data set [31] (setting [33]), the “Reduction of belumosudil Cmax” value was “up to 87%” and the “Reduction of belumosudil overall exposure” value is given as “up to 80%”. In addition, in data set [31] (setting [34]), the “Reduction of belumosudil Cmax” value is recorded as “approximately 60%” and the “Reduction of belumosudil overall exposure” value is “approximately 72%”.

Consider `NC(=O)COc1cccc(-c2nc(Nc3ccc4[nH]ncc4c3)c3ccccc3n2)c1` [KD025m1], for which, in data set [25], the ROCK2 inhibition entry was “inhibit”.

Take `O=C(O)COc1cccc(-c2nc(Nc3ccc4[nH]ncc4c3)c3ccccc3n2)c1` [KD025m2]: the ROCK2 inhibition result in data set [25] was “inhibit”.
